# According to the OligoGym collection:
# Values joined by “and” are separate entries in the source; they are usually repeats but may differ in a detail not shown here. Equal entries are not always repeated. After the bases stand the sugars from the 5' end (letter, count) and the backbone: PS all phosphorothioate, else s phosphorothioate and o phosphodiester by linkage. Methylation of C is not given here. e = 2'-O-(2-methoxyethyl) (MOE); k = constrained ethyl (cEt); d = 2'-deoxy (DNA)
# Target: APOL1
# Conditions: ASO
Sequence,"target mRNA inhibition (A431, 0.0156 µM) [%]","target mRNA inhibition (A431, 0.0625 µM)","target mRNA inhibition (A431, 0.25 µM)","target mRNA inhibition (A431, 1 µM)","target mRNA inhibition (A431, 2 µM)","target mRNA inhibition (A431, 0.04 µM) [%]"
"GCTAATTTTCTGACTG (sugars k2 d4 e3 k2 d5, PS)",35,62%,81%,92%,94%,–
"TCTATTAGAGGGCTAG (sugars kkddddkdkdkddddd, PS)",–,–,–,–,68%,–
"TAAGTATTGCCAGCTA (sugars kkkddddkekeddddd, PS)",–,–,–,–,78%,–
"GCTAATTTTCTGACTG (sugars kdddddkekekddddd, PS)",–,–,–,–,98%,–
"CACCCTCTTTATCCCC (sugars k4 d9 k3, PS)",–,47% and 62%,76% and 82%,90%,–,–
"GGTTCAAAAGCAGCAT (sugars k3 d4 k3 e1 d5, PS)",–,–,–,–,74%,–
"ACGCAATGCTGACTTG (sugars kkddddkdkdkddddd, PS)",–,–,–,–,85%,–
"TTCTCATGGTACAGGA (sugars kkkddddkekekdddd, PS)",–,–,–,–,54%,–
"ACGCAATGCTGACTTG (sugars kkkddddkekekdddd, PS)",–,–,–,–,71%,–
"GAAATGAACGCAATGC (sugars k4 d9 k3, PS)",–,42%,71%,87%,–,–
"ACTTTTTCACCATAGC (sugars k4 d9 k3, PS)",–,53%,82%,93%,–,–
"GTTCAAAAGCAGCATT (sugars k3 d4 k3 e1 d5, PS)",–,–,–,–,80%,–
"GTATTTCTTGATGTGG (sugars k3 d5 k3 d5, PS)",–,–,95% and 98% and 99%,97% and 99% and 100%,99% and 100%,–
"TTTGTAAGTGCAACCA (sugars kddddkekekeddddd, PS)",–,–,–,–,95%,–
"TTTAAACTCAGGTGAC (sugars kddddkekekeddddd, PS)",–,–,–,–,43%,–
"AGCTTTAAACTCAGGT (sugars kkkddddkdkdkdddd, PS)",–,–,–,–,74%,–
"AGTTTTGTAAGTGCAA (sugars kkddddekekeddddd, PS)",25,53%,79%,91%,91%,–
"TATTTCTTGATGTGGT (sugars kkddddkekekddddd, PS)",44,77%,92%,96%,97%,–

Sequence,"target mRNA inhibition (A431, 0.0156 µM) [%]","target mRNA inhibition (A431, 0.0625 µM)","target mRNA inhibition (A431, 0.25 µM)","target mRNA inhibition (A431, 1 µM)","target mRNA inhibition (A431, 2 µM)","target mRNA inhibition (A431, 0.04 µM) [%]"
"GCTAATTTTCTGACTG (sugars k3 d4 k3 e1 d5, PS)",2,46%,76%,87%,92%,–
"GAGTCATTTGCTAGGT (sugars k4 d9 k3, PS)",–,78%,89%,92%,–,–
"GTATTTCTTGATGTGG (sugars kkdddddkekeddddd, PS)",59,89%,97%,98% and 99%,98%,64
"TCTATTAGAGGGCTAG (sugars kkddddkekekddddd, PS)",–,–,–,–,52%,–
"AAGGTTGTCCAGAGCT (sugars k4 d9 k3, PS)",–,28%,27%,65%,–,–
"TTATACCAGTGTCTTC (sugars kdddddkekekddddd, PS)",–,–,–,–,82%,–
"CCTCATTGCAAATCCT (sugars k4 d9 k3, PS)",–,54%,84%,96%,–,–
"ACGCAATGCTGACTTG (sugars kdddddkekekddddd, PS)",–,–,–,–,71%,–
"GTTCTAACTCTTGGGC (sugars kddddkekekeddddd, PS)",–,–,–,–,77%,–
"GTTCAAAAGCAGCATT (sugars kkkddddkekekdddd, PS)",–,–,–,–,24%,–
"GTATTGTTTTTGTGGG (sugars kkddddkekekkdddd, PS)",–,–,–,–,39%,–
"TCTATTAGAGGGCTAG (sugars kkdddddkekeddddd, PS)",–,–,–,–,72%,–
"CTTTAAACTCAGGTGA (sugars kkddddkdkdkddddd, PS)",–,–,–,–,89%,–
"TGGGAATTATGGAATT (sugars kkddddkekekddddd, PS)",–,–,–,–,87%,–
"GCTGGGTCTGTAGTGG (sugars k4 d9 k3, PS)",–,49%,70%,82%,–,–
"TATTTCTTGATGTGGT (sugars kkddddkdkdkddddd, PS)",40,71%,91%,96%,97%,–
"TGGGTCAAAAGCGATG (sugars k4 d9 k3, PS)",–,25%,54%,77%,–,–
"ATTCTCATGGTACAGG (sugars k3 d4 k3 e1 d5, PS)",17,48%,72%,88%,93%,–
